Measurements: patent US12685312B2, “Sulfonamide apyrase inhibitors” (Texas Crop Science, Inc., priority 2022, dated 2026)

These molecules were tested on apyrase (assay: Screen for apyrase inhibitors (Method 1, in vitro phosphate-release absorbance assay)). Conditions: inhibitor conc at 1 mM stock, 1 hr room temperature, absorbance 630 nm; rounded average of two assay results.
Format: biochemical
Method in brief: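 Phosphate-release colorimetric assay (Windsor method) in 60 mM Hepes, 3 mM MgCl2, 3 mM CaCl2, 3 mM ATP, pH 6.5, with compound or DMSO control added. Released phosphate developed with ammonium molybdate and ascorbic acid/TCA, then stopped with citrate/acetic acid.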
With `COc1ccc(S(=O)(=O)N2CCc3ccccc32)cc1C(=O)Nc1cc(C(F)(F)F)cc(C(F)(F)F)c1` [I-447, N-(3,5-bis(trifluoromethyl)phenyl)-5-(indolin-1-ylsulfonyl)-2-methoxybenzamide] the “% Inhibition of Apyrase” value was 61%.
`O=C(c1ccc(Cl)c(S(=O)(=O)N2CCc3ccccc32)c1)N1CCc2ccccc21` [I-448, (4-chloro-3-(indolin-1-ylsulfonyl)phenyl)(indolin-1-yl)methanone] was tested, and the “% Inhibition of Apyrase” value was 61%.
`COc1ccc(NC(=O)c2cccc(S(=O)(=O)N3c4ccccc4CC3C)c2)cc1OC` (stereo not shown) [I-449, N-(3,4-dimethoxyphenyl)-3-((2-methylindolin-1-yl)sulfonyl)benzamide] was tested, and the “% Inhibition of Apyrase” value was 61%.
For `O=C(Nc1ccc(F)c(Cl)c1)c1cccc(S(=O)(=O)Nc2ccc(F)cc2)c1` [I-450, N-(3-chloro-4-fluorophenyl)-3-(N-(4-fluorophenyl)sulfamoyl)benzamide], the “% Inhibition of Apyrase” value was 61%.
With `O=C(Nc1ccc2c(c1)OCO2)c1cccc(S(=O)(=O)N2CCc3ccccc32)c1` [I-451, N-(benzo[d][1,3]dioxol-5-yl)-3-(indolin-1-ylsulfonyl)benzamide] the “% Inhibition of Apyrase” value was 60%.
In the case of `Cc1ccc(NC(=O)c2cccc(S(=O)(=O)N3CCc4ccccc43)c2)cc1C` [I-452, N-(3,4-dimethylphenyl)-3-(indolin-1-ylsulfonyl)benzamide], the “% Inhibition of Apyrase” value is reported as 60%.
For `Cc1ccc(NC(=O)c2ccc(Cl)c(S(=O)(=O)N3CCc4ccccc43)c2)cc1` [I-453, 4-chloro-3-(indolin-1-ylsulfonyl)-N-(p-tolyl)benzamide], the “% Inhibition of Apyrase” value was 60%.
`COc1ccc(NC(=O)c2cccc(S(=O)(=O)N3CCc4ccccc43)c2)cc1` [I-454, 3-(indolin-1-ylsulfonyl)-N-(4-methoxyphenyl)benzamide] was tested, and the “% Inhibition of Apyrase” value was 60%.
`Cc1c(Cl)cccc1NC(=O)c1cccc(S(=O)(=O)N2CCc3ccccc32)c1` [I-455, N-(3-chloro-2-methylphenyl)-3-(indolin-1-ylsulfonyl)benzamide] was tested, and the “% Inhibition of Apyrase” value was 60%.
`NC(=O)c1cccc(NC(=O)c2cccc(S(=O)(=O)N3CCc4ccccc43)c2)c1` [I-456, N-(3-carbamoylphenyl)-3-(indolin-1-ylsulfonyl)benzamide] was tested, and the “% Inhibition of Apyrase” value was 60%.
For `O=C(c1cccc(S(=O)(=O)N(Cc2ccccc2)c2cccc(C(F)(F)F)c2)c1)N1CCc2ccccc21` [I-457, N-benzyl-3-(indoline-1-carbonyl)-N-(3-(trifluoromethyl)phenyl)benzenesulfonamide], the “% Inhibition of Apyrase” value was 60%.
For `CC1Cc2ccccc2N1S(=O)(=O)c1cccc(C(=O)Nc2cccc(S(N)(=O)=O)c2)c1` (stereo not shown) [I-458, 3-((2-methylindolin-1-yl)sulfonyl)-N-(3-sulfamoylphenyl)benzamide], the “% Inhibition of Apyrase” value was 60%.
`Cc1ccc(NS(=O)(=O)c2ccc(Cl)c(C(=O)N3CCc4ccccc43)c2)cc1C` [I-459, 4-chloro-N-(3,4-dimethylphenyl)-3-(indoline-1-carbonyl)benzenesulfonamide] was tested, and the “% Inhibition of Apyrase” value was 60%.
With `COc1ccc(NS(=O)(=O)c2cccc(C(=O)Nc3ccc(OC(F)F)cc3)c2)cc1` [I-460, N-(4-(difluoromethoxy)phenyl)-3-(N-(4-methoxyphenyl)sulfamoyl)benzamide] the “% Inhibition of Apyrase” value was 60%.
With `COc1ccccc1NS(=O)(=O)c1cccc(C(=O)Nc2c(C)nc(O)nc2O)c1` [I-461, N-(2,4-dihydroxy-6-methylpyrimidin-5-yl)-3-(N-(2-methoxyphenyl)sulfamoyl)benzamide] the “% Inhibition of Apyrase” value was 59%.
In the case of `N#Cc1cccc(NC(=O)c2ccc(Cl)c(S(=O)(=O)N3CCc4ccccc43)c2)c1` [I-462, 4-chloro-N-(3-cyanophenyl)-3-(indolin-1-ylsulfonyl)benzamide], the “% Inhibition of Apyrase” value is reported as 59%.
With `O=C(Nc1ccccc1OC(F)F)c1ccc(Cl)c(S(=O)(=O)N2CCc3ccccc32)c1` [I-463, 4-chloro-N-(2-(difluoromethoxy)phenyl)-3-(indolin-1-ylsulfonyl)benzamide] the “% Inhibition of Apyrase” value was 59%.
In the case of `CC1Cc2ccccc2N1C(=O)c1cccc(S(=O)(=O)N(C)c2cccc(Cl)c2)c1` (stereo not shown) [I-464, N-(3-chlorophenyl)-N-methyl-3-(2-methylindoline-1-carbonyl)benzenesulfonamide], the “% Inhibition of Apyrase” value is reported as 59%.
For `CC1Cc2ccccc2N1S(=O)(=O)c1cccc(C(=O)N2CCCc3ccccc32)c1` (stereo not shown) [I-465, (3,4-dihydroquinolin-1(2H)-yl)(3-((2-methylindolin-1-yl)sulfonyl)phenyl)methanone], the “% Inhibition of Apyrase” value was 59%.
In the case of `Cc1ccccc1NC(=O)c1cccc(S(=O)(=O)N2c3ccccc3CC2C)c1` (stereo not shown) [I-466, 3-((2-methylindolin-1-yl)sulfonyl)-N-(o-tolyl)benzamide], the “% Inhibition of Apyrase” value is reported as 59%.
`COc1ccccc1NC(=O)c1cccc(S(=O)(=O)N2CCc3ccccc32)c1` [I-467, 3-(indolin-1-ylsulfonyl)-N-(2-methoxyphenyl)benzamide] was tested, and the “% Inhibition of Apyrase” value was 59%.
In the case of `CSc1cccc(NC(=O)c2cccc(S(=O)(=O)N3c4ccccc4CC3C)c2)c1` (stereo not shown) [I-468, 3-((2-methylindolin-1-yl)sulfonyl)-N-(3-(methylthio)phenyl)benzamide], the “% Inhibition of Apyrase” value is reported as 59%.
With `CC1Cc2ccccc2N1S(=O)(=O)c1cccc(C(=O)Nc2cc(F)ccc2F)c1` (stereo not shown) [I-469, N-(2,5-difluorophenyl)-3-((2-methylindolin-1-yl)sulfonyl)benzamide] the “% Inhibition of Apyrase” value was 59%.
For `O=C(Nc1ccc(Br)cc1F)c1cccc(S(=O)(=O)N2CCc3ccccc32)c1` [I-470, N-(4-bromo-2-fluorophenyl)-3-(indolin-1-ylsulfonyl)benzamide], the “% Inhibition of Apyrase” value was 59%.
With `COc1ccc(S(=O)(=O)N2CCc3ccccc32)cc1C(=O)Nc1ccc(Br)c(C)c1` [I-471, N-(4-bromo-3-methylphenyl)-5-(indolin-1-ylsulfonyl)-2-methoxybenzamide] the “% Inhibition of Apyrase” value was 59%.
In the case of `O=C(Nc1ccc(F)c(F)c1)c1cccc(S(=O)(=O)N2CCc3ccccc32)c1` [I-472, N-(3,4-difluorophenyl)-3-(indolin-1-ylsulfonyl)benzamide], the “% Inhibition of Apyrase” value is reported as 59%.
`COc1ccc(C)cc1NC(=O)c1cccc(S(=O)(=O)N2CCc3ccccc32)c1` [I-473, 3-(indolin-1-ylsulfonyl)-N-(2-methoxy-5-methylphenyl)benzamide] was tested, and the “% Inhibition of Apyrase” value was 59%.
In the case of `O=C(c1cc(S(=O)(=O)Nc2cccc(C(F)(F)F)c2)ccc1Cl)N1CCCc2ccccc21` [I-474, 4-chloro-3-(1,2,3,4-tetrahydroquinoline-1-carbonyl)-N-(3-(trifluoromethyl)phenyl)benzenesulfonamide], the “% Inhibition of Apyrase” value is reported as 59%.
In the case of `O=C(c1cccc(S(=O)(=O)Nc2cccc(C(F)(F)F)c2)c1)N1CCc2ccccc21` [I-475, 3-(indoline-1-carbonyl)-N-(3-(trifluoromethyl)phenyl)benzenesulfonamide], the “% Inhibition of Apyrase” value is reported as 59%.
With `CC1Cc2ccccc2N1S(=O)(=O)c1cccc(C(=O)Nc2ccccc2OC(F)(F)F)c1` (stereo not shown) [I-476, 3-((2-methylindolin-1-yl)sulfonyl)-N-(2-(trifluoromethoxy)phenyl)benzamide] the “% Inhibition of Apyrase” value was 58%.
With `CN(c1ccccc1)S(=O)(=O)c1cc(C(=O)N2CCc3cc([N+](=O)[O-])ccc32)ccc1Cl` [I-477, 2-chloro-N-methyl-5-(5-nitroindoline-1-carbonyl)-N-phenylbenzenesulfonamide] the “% Inhibition of Apyrase” value was 58%.
With `O=C(Nc1ccc(S(=O)(=O)NC2CC2)cc1)c1cccc(S(=O)(=O)N2CCc3ccccc32)c1` [I-478, N-(4-(N-cyclopropylsulfamoyl)phenyl)-3-(indolin-1-ylsulfonyl)benzamide] the “% Inhibition of Apyrase” value was 58%.
In the case of `COc1ccc(N(C)S(=O)(=O)c2cccc(C(=O)Nc3ccc4c(c3)OCO4)c2)cc1` [I-479, N-(benzo[d][1,3]dioxol-5-yl)-3-(N-(4-methoxyphenyl)-N-methylsulfamoyl)benzamide], the “% Inhibition of Apyrase” value is reported as 58%.
`CC(=O)Nc1ccc(NC(=O)c2cccc(S(=O)(=O)N3CCc4ccccc43)c2)cc1` [I-480, N-(4-acetamidophenyl)-3-(indolin-1-ylsulfonyl)benzamide] was tested, and the “% Inhibition of Apyrase” value was 58%.
With `Cc1ccc(N(C)S(=O)(=O)c2cccc(C(=O)N3c4ccccc4CC3C)c2)cc1` (stereo not shown) [I-481, N-methyl-3-(2-methylindoline-1-carbonyl)-N-(p-tolyl)benzenesulfonamide] the “% Inhibition of Apyrase” value was 58%.
With `CN(c1ccccc1)S(=O)(=O)c1cccc(C(=O)N2CCCc3ccccc32)c1` [I-482, N-methyl-N-phenyl-3-(1,2,3,4-tetrahydroquinoline-1-carbonyl)benzenesulfonamide] the “% Inhibition of Apyrase” value was 58%.
`CC1Cc2ccccc2N1S(=O)(=O)c1cccc(C(=O)Nc2ccc(Oc3ccccc3)cc2)c1` (stereo not shown) [I-483, 3-((2-methylindolin-1-yl)sulfonyl)-N-(4-phenoxyphenyl)benzamide] was tested, and the “% Inhibition of Apyrase” value was 58%.
In the case of `CC1Cc2ccccc2N1S(=O)(=O)c1cccc(C(=O)Nc2cccc3cccnc23)c1` (stereo not shown) [I-484, 3-((2-methylindolin-1-yl)sulfonyl)-N-(quinolin-8-yl)benzamide], the “% Inhibition of Apyrase” value is reported as 58%.
With `O=C(c1cccc(S(=O)(=O)N2CCCc3ccccc32)c1)N1CCc2ccccc21` [I-485, (3-((3,4-dihydroquinolin-1(2H)-yl)sulfonyl)phenyl)(indolin-1-yl)methanone] the “% Inhibition of Apyrase” value was 58%.
In the case of `C=CCN(c1ccc(Cl)cc1)S(=O)(=O)c1ccc(Cl)c(C(=O)N2CCc3ccccc32)c1` [I-486, N-allyl-4-chloro-N-(4-chlorophenyl)-3-(indoline-1-carbonyl)benzenesulfonamide], the “% Inhibition of Apyrase” value is reported as 58%.
For `CC1Cc2ccccc2N1S(=O)(=O)c1cccc(C(=O)Nc2cccc(Oc3ccccc3)c2)c1` (stereo not shown) [I-487, 3-((2-methylindolin-1-yl)sulfonyl)-N-(3-phenoxyphenyl)benzamide], the “% Inhibition of Apyrase” value was 58%.
In the case of `O=C(Nc1cc(F)ccc1F)c1cccc(S(=O)(=O)N2CCc3ccccc32)c1` [I-488, N-(2,5-difluorophenyl)-3-(indolin-1-ylsulfonyl)benzamide], the “% Inhibition of Apyrase” value is reported as 58%.
For `Cc1cccc(NS(=O)(=O)c2ccc(C)c(C(=O)N3CCCc4ccccc43)c2)c1` [I-489, 4-methyl-3-(1,2,3,4-tetrahydroquinoline-1-carbonyl)-N-(m-tolyl)benzenesulfonamide], the “% Inhibition of Apyrase” value was 58%.
